# Tested on: C57BL/6 mice
# Assay: In vivo bioluminescence after intravenous administration of lipid nanoparticles encapsulating luciferase mRNA
# Details: 0.5 mg/kg mRNA, liver
# Procedure: The delivery effect and safety of nanoparticles encapsulating luciferase mRNA (Trilink, L-7202) in mice were evaluated. The test mice were SPF-grade C57BL/6 mice, female, 6-8 weeks old, weighing 18-22 g, and were purchased from SPF (Beijing) Biotechnology Co., Ltd. All animals were acclimatized for more than 7 days prior to the experiment, and had free access to food and water during the experiment. The conditions include alternating light and dark for 12/12 h, the indoor temperature of 20-26° C. and the humidity of 40-70%. The mice were randomly grouped. The lipid nanoparticles encapsulating luciferase mRNA prepared above were injected into mice by intravenous administration at a single dose of 0.5 mg/kg mRNA, and the mice were subjected to in vivo bioluminescence assay using a Small Animal In Vivo Imaging System (IVIS LUMINA III, purchased from PerkinElmer) at 6 h after administration. The assay was performed as follows: D-luciferin solution was prepared in saline at a concentration of 15 mg/mL, and each mouse was given the substrate by intraperitoneal injection. At ten minutes after administration of the substrate, the mice were anesthetized in an anesthesia chamber with isoflurane at a concentration of 2.5%. […] Data acquisition and analysis were performed on the liver.
# The in vivo delivery efficiency of lipid nanoparticle carriers was expressed as the mean values of fluorescence intensity and total photon count in different animals within the same subject group, as shown in Table 4. Higher values of fluorescence intensity and total photon count indicate higher in vivo delivery efficiency of this mRNA fragment by lipid nanoparticles. The lipid nanoparticles containing the cationic lipids of the present disclosure have good in vivo delivery efficiency and mainly target the liver.
row,Compound,Total photon count in vivo at 6 hours after administration (Total Flux)
1,CCCCCCCCOC(=O)C(C)(C)CCCCCC(CCCCCC(C)(C)C(=O)OCCCCCCCC)OC(=O)CCN(C)C [Compound 2],4.23E+08
2,CCCCCCCCCOC(=O)C(C)(C)CCCCCC(CCCCCC(C)(C)C(=O)OCCCCCCCCC)OC(=O)CCN(C)C [Compound 3],1.75E+09
3,CC(C)CCCC(C)CCOC(=O)C(C)(C)CCCCCC(CCCCCC(C)(C)C(=O)OCCC(C)CCCC(C)C)OC(=O)CCN(C)C (centres unmarked) [Compound 6],2.25E+09
4,CC/C=C\CCCCCOC(=O)C(C)(C)CCCCCC(CCCCCC(C)(C)C(=O)OCCCCC/C=C\CC)OC(=O)CCN(C)C [Compound 7],1.16E+08
5,CCCCCCCCCCNC(=O)C(C)(C)CCCCCC(CCCCCC(C)(C)C(=O)NCCCCCCCCCC)OC(=O)CCN(C)C [Compound 8],3.26E+07
6,CCCCCCCCCNC(=O)C(C)(C)CCCCCC(CCCCCC(C)(C)C(=O)NCCCCCCCCC)OC(=O)CCN(C)C [Compound 9],6.05E+06
7,CCCCCCCCCCCCNC(=O)C(C)(C)CCCCCC(CCCCCC(C)(C)C(=O)NCCCCCCCCCCCC)OC(=O)CCN(C)C [Compound 10],1.26E+09
8,CCCCCCCCC(CCCCCCCC)NC(=O)C(C)(C)CCCCCC(CCCCCC(C)(C)C(=O)NC(CCCCCCCC)CCCCCCCC)OC(=O)CCN(C)C [Compound 11],4.42E+06
9,CCCCCCCCCN(CCCCCCCCC)C(=O)C(C)(C)CCCCCC(CCCCCC(C)(C)C(=O)N(CCCCCCCCC)CCCCCCCCC)OC(=O)CCN(C)C [Compound 12],1.10E+09
10,CCCCCCCCCCOC(=O)C(C)(C)CCCCCC(CCCCCC(C)(C)C(=O)OCCCCCCCCCC)OC(=O)CN(C)C [Compound 17],6.77E+05
11,CCCCCCCCCCOC(=O)C(C)(C)CCCCCC(CCCCCC(C)(C)C(=O)OCCCCCCCCCC)OC(=O)CCCN(C)C [Compound 18],1.14E+10
12,CCCCCCCCOC(=O)C(C)(C)CCCCCC(CCCCCC(C)(C)C(=O)OCCCCCCCC)OC(=O)CCCN(C)C [Compound 19],3.20E+09
13,CCCCCCCCCOC(=O)C(C)(C)CCCCCC(CCCCCC(C)(C)C(=O)OCCCCCCCCC)OC(=O)CCCN(C)C [Compound 20],2.40E+10
14,CCCCCCCC#CCOC(=O)C(C)(C)CCCCCC(CCCCCC(C)(C)C(=O)OCC#CCCCCCCC)OC(=O)CCCN(C)C [Compound 23],1.43E+10
15,CCCCC#CCCCCOC(=O)C(C)(C)CCCCCC(CCCCCC(C)(C)C(=O)OCCCCC#CCCCC)OC(=O)CCCN(C)C [Compound 25],1.89E+08
16,CCCCCCC/C=C\COC(=O)C(C)(C)CCCCCC(CCCCCC(C)(C)C(=O)OC/C=C\CCCCCCC)OC(=O)CCCN(C)C [Compound 26],>4.00E+10
17,CCCCCC/C=C\CCOC(=O)C(C)(C)CCCCCC(CCCCCC(C)(C)C(=O)OCC/C=C\CCCCCC)OC(=O)CCCN(C)C [Compound 27],2.20E+10
18,CCCCCCCCCOC(=O)C(C)(C)CCCCCC(CCCCCC(C)(C)C(=O)OCCCCCCCCC)OC(=O)CCCCCN(C)C [Compound 32],7.30E+09
19,CCCCCCCCCCSC(=O)C(C)(C)CCCCCC(CCCCCC(C)(C)C(=O)SCCCCCCCCCC)OC(=O)CCN(C)C [Compound 33],2.12E+08
20,CCCCCCCCCCSC(=O)C(C)(C)CCCCCC(CCCCCC(C)(C)C(=O)SCCCCCCCCCC)OC(=O)CCCN(C)C [Compound 34],1.26E+10

# Source: patent US20240245617A1, “LIPID-BASED TOPICAL INJECTION FORMULATIONS” (Beijing Jitai Pharmaceutical Technology Co., Ltd., priority 2022, published 2024)
